Data from US20080107661A1, “MUC1 and ABL” (Dana-Farber Cancer Institute, Inc., priority 2006, published 2008).
Structures can show the parent of a compound that is named as a salt.

Legend:
[1] = tested on: MUC1 (mucin 1), wild-type, expressed in cells as heterodimer of MUC1-N and MUC1-C
[2] = tested on: MUC1(Y60F), MUC1 with tyrosine 60 of the cytoplasmic domain changed to phenylalanine
c-Abl = test: Nuclear and cytosolic c-Abl in HeLa/vector and HeLa/MUC1 cells after genotoxic agents (subcellular fractionation, immunoblot); assay type: cell-based, human; details: 1 μM ADR, 2 hours
Source text: (§1) Cell culture. Human HeLa cervical cancer cells, HCT116/vector (HCT116 colorectal carcinoma cells stably transfected with an empty vector), HCT116/MUC1 (HCT116 colorectal carcinoma cells stably transfected with an expression vector encoding a MUC1 polypeptide), HCT116/MUC1(Y46F) (HCT116 colorectal carcinoma cells stably transfected with an expression vector encoding a mutant MUC1 polypeptide containing an amino acid substitution at position 46 changing a tyrosine (Y) to phenylalanine (F)) colon cancer cells (Ren et al., (2002) J. Biol. Chem. 277: 17616-17622) and 293 cells were cultured in Dulbecco's modified medium with 10% heat-inactivated fetal bovine serum, 100 units/ml penicillin, 100 μg/ml streptomycin and 2 mM L-glutamine. Human ZR-75-1/vector (ZR-75-1 breast cancer cells stably transfected with an empty vector) and ZR-75-1/MUC1siRNA (ZR-75-1 breast cancer cells stably transfected with an expression vector encoding an siRNA specific for MUC1) breast cancer cells (Ren et al., (2004) Cancer Cell 5:163-175) were grown in RPMI1640 medium containing 10% heat-inactivated fetal bovine serum and antibiotics. Cells were treated with 1 μM adriamycin (ADR; Calbiochem), 100 μM cisplatin (CDDP; Sigma) or 10 μM STI571 (Gleevec; Novartis, Basel, Switzerland).
Subcellular fractionation. Nuclear fractions were prepared as described (Kharbanda et al., (1996) Cancer Res. 56:3617-3621). Cytosolic fractions were prepared as described (Hill et al., (2004) EMBO J. 23:2134-2145). Cell membrane fractions were prepared with the Plasma Membrane Extraction Kit (BioVision Research Products, Mountain View, Calif.). Mitochondria were purified as described (Ren et al., (2004) Cancer Cell 5:163-175; Ren et al., (2006) Oncogene 25:20-31).
Immunoprecipitations and immunoblot analysis. Cell lysates were prepared as described (Kharbanda et al., (1995) Nature 376:785-788); Yoshida et al., (2005) Nat. Cell Biol. 7:278-285). Soluble proteins were incubated with anti-MUC1-N (Kufe et al., (1984) Hybridoma 3:223-232), anti-MUC1-C (Ab5; Neomarker, Montreal, Quebec), anti-Flag (Sigma, St. Louis, Mo.), anti-c-Abl (Ab3; Oncogene, San Diego, Calif.) or anti-14-3-3 (Abcam Inc., Cambridge, Mass.) antibodies for 2 hours at 4° C., followed by precipitation with protein G-Sepharose beads for 1 hour. […] Intensity of the signals was determined by densitometric scanning. Statistical significance was determined by the Student's t-test.

GFP-c-Abl = test: Nuclear targeting of GFP-c-Abl in transiently transfected 293 cells; assay type: cell-based, human
Source text: as §1
Cell transfections. […]

[3] = tested on: MUC1-CD (purified MUC1 cytoplasmic domain, thrombin-cleaved from GST-MUC1-CD)
HCT116 cells = test: Assessment of apoptosis (sub-G1 DNA, propidium iodide, FACScan); assay type: cell-based, human; details: 10 μM STI571 with CDDP, 12 h

With “c-Abl (nonreceptor c-Abl tyrosine kinase), endogenous in human cell lines” the “c-Abl Thr-735 phosphorylation (anti-c-Abl precipitates, immunoblot anti-phospho-c-Abl-Thr-735)” value [1] was “c-Abl Thr-735 phosphorylation was attenuated by expression of MUC1” and the “c-Abl Thr-735 phosphorylation (anti-c-Abl precipitates, immunoblot anti-phospho-c-Abl-Thr-735)” value [2] was “c-Abl Thr-735 phosphorylation was attenuated by expression of MUC1, but not MUC1(Y60F), in HCT116 cells”.
`COc1cccc2c1C(=O)c1c(O)c3c(c(O)c1C2=O)C[C@@](O)(C(=O)CO)C[C@@H]3O[C@H]1C[C@H](N)[C@H](O)[C@H](C)O1` [ADR, adriamycin] was tested, and the “nuclear targeting of c-Abl” value (c-Abl; HeLa/MUC1 cells) was “little to no nuclear targeting of c-Abl”, the “nuclear targeting of c-Abl” value (c-Abl; HeLa/vector cells) was “targeting of c-Abl to the nucleus” and the “ADR-induced nuclear targeting of c-Abl” value (GFP-c-Abl; GFP-c-Abl with coexpressed MUC1, 2 hours) was “attenuated by coexpression of MUC1”. The “nuclear targeting of GFP-tagged c-Abl” value (GFP-c-Abl; GFP-c-Abl without MUC1, ADR, 2 hours) was “increased by ADR treatment”.
“GST-c-Abl(K-R) (GST fused to a kinase defective mutant c-Abl, lysine to arginine in the active site)” was tested, and the “phosphorylation of MUC1-CD (in vitro kinase assay, 32P-ATP, SDS-PAGE and autoradiography)” value [3] was “There was no detectable phosphorylation when MUC1-CD was incubated with a purified kinase-inactive c-Abl(K-R)”.
In the case of `Cc1ccc(NC(=O)c2ccc(CN3CCN(C)CC3)cc2)cc1Nc1nccc(-c2cccnc2)n1` [STI751, imatinib mesylate], the “effect on CDDP-induced apoptosis (sub-G1 DNA)” value (“effect” for short) (HCT116 cells; HCT116/MUC1(Y60F) cells) is reported as “significantly attenuated”, the “effect” value (HCT116 cells; HCT116/MUC1 cells) is reported as “no significant effect” and the “effect” value (HCT116 cells; HCT116/vector cells) is reported as “significantly attenuated”.
With “GST-c-Abl (glutathione-S-transferase fused in frame with a wild-type c-Abl polypeptide)” the “phosphorylation of MUC1-CD (in vitro kinase assay, 32P-ATP, SDS-PAGE and autoradiography)” value [3] was “Analysis of the reaction products by SDS-PAGE and autoradiography showed phosphorylation of MUC1-CD” and the “phosphorylation of MUC1-CD(Y60F) (in vitro kinase assay, 32P-ATP, SDS-PAGE and autoradiography)” value (MUC1-CD(Y60F)) was “c-Abl phosphorylation was substantially decreased with the MUC1-CD(Y60F) mutant”.
